# Test results: patent US4439426A, “Semisynthetic macrolidic antibiotics, intermediate compounds for their preparation and related pharmaceutical compositions containing them” (priority 1981, dated 1984)
# What was measured:
# [1] = Stability in acidic environment at 25° C. (half-life of initial microbiological activity); type: physicochemical; details: aqueous solution
# Description: Stability in acidic environnment at 25° C. of the novel
# Note: t 1/2 represents the time for reducing to one half the initial powe
# of the antibiotic determined by microbiological method through diffusion
# on a plate using the test stock Microccocus luteus (Sarcina lutea) ATCC
# [2] = test system: Acholeplasma laidlawii ATCC 23206 LRP 204; experiment: Bacteriostatic power in solid medium (MIC); type: cell-based; details: Acholeplasma laidlawii, ATCC23206; solid medium; read-out: Minimum inhibiting concentration
# Text: (§1) the bacteriostatic power, expressed as the minimum inhibiting concentration (MIC) against both aerobic and anaerobic, Gram positive and Gram negative, bacterial stocks: the related results are reported in the tables 2 and 3.
# Bacillus subtilis LRP 25 = experiment: Bacteriostatic power in solid medium (MIC); type: cell-based; details: Bacillus subtilis, LRP25; solid medium; read-out: Minimum inhibiting concentration
# Text: as §1
# [3] = test system: Bacteroides fragilis ATCC 23745 LRP 205; experiment: Bacteriostatic power in solid medium (MIC); type: cell-based; details: Bacteroides fragilis, ATCC23745; solid medium; anaerobic; read-out: Minimum inhibiting concentration
# Text: as §1
# [4] = test system: Corynebacterium diphteriae LRP 24; experiment: Bacteriostatic power in solid medium (MIC); type: cell-based; details: Corynebacterium, LRP24; solid medium; read-out: Minimum inhibiting concentration
# Text: as §1
# Escherichia coli LRP 50 = experiment: Bacteriostatic power in solid medium (MIC); type: cell-based; details: Escherichia coli, LRP50, read-out: Minimum inhibiting concentration
# Text: as §1
# [5] = test system: Fusobacteriumnecrophroum ATCC 27852 LRP 210; experiment: Bacteriostatic power in solid medium (MIC); type: cell-based; details: read-out: Minimum inhibiting concentration
# Text: as §1
# [6] = test system: Haemophilus influenzae ATCC 19418 LRP 213; experiment: Bacteriostatic power in solid medium (MIC); type: cell-based; details: Haemophilus influenzae, ATCC19418, read-out: Minimum inhibiting concentration
# Text: as §1
# [7] = test system: Klelsiella pneumoniae LRP 54; experiment: Bacteriostatic power in solid medium (MIC); type: cell-based; details: solid medium; read-out: Minimum inhibiting concentration
# Text: as §1
# [8] = test system: Micrococcus luteus ATCC 15957 LRP 193; experiment: Bacteriostatic power in solid medium (MIC); type: cell-based; details: Micrococcus luteus, ATCC15957; solid medium; Erythromycin resistant; read-out: Minimum inhibiting concentration
# Text: as §1
# [9] = test system: Micrococcus luteus ATCC 9341 LRP 6; experiment: Bacteriostatic power in solid medium (MIC); type: cell-based; details: Micrococcus luteus, ATCC9341; solid medium; read-out: Minimum inhibiting concentration
# Text: as §1
# [10] = test system: Mycoplasma hominis I ATCC 14027 LRP 211; experiment: Bacteriostatic power in solid medium (MIC); type: cell-based; details: Metamycoplasma hominis, ATCC14027; solid medium; read-out: Minimum inhibiting concentration
# Text: as §1
# [11] = test system: Neisseria gonorrhoeae ATCC 19424 LRP 214; experiment: Bacteriostatic power in solid medium (MIC); type: cell-based; details: Neisseria gonorrhoeae, ATCC19424; solid medium; read-out: Minimum inhibiting concentration
# Text: as §1
# [12] = test system: Proteus vulgaris ATCC 6380 LRP 13; experiment: Bacteriostatic power in solid medium (MIC); type: cell-based; details: Proteus vulgaris, ATCC6380; solid medium; read-out: Minimum inhibiting concentration
# Text: as §1
# [13] = test system: Pseudomonas aeruginosa LRP 9; experiment: Bacteriostatic power in solid medium (MIC); type: cell-based; details: Pseudomonas aeruginosa, LRP9; solid medium; read-out: Minimum inhibiting concentration
# Text: as §1
# Shigella sonnei LRP 5 = experiment: Bacteriostatic power in solid medium (MIC); type: cell-based; details: LRP5, read-out: Minimum inhibiting concentration
# Text: as §1
# [14] = test system: Staphylococcus aureus ATCC 14154 LRP 78; experiment: Bacteriostatic power in solid medium (MIC); type: cell-based; details: Staphylococcus aureus, ATCC14154; solid medium; Erythromycin resistant; read-out: Minimum inhibiting concentration
# Text: as §1
# [15] = test system: Staphylococcus aureus ATCC 6538P LRP 14; experiment: Bacteriostatic power in solid medium (MIC); type: cell-based; details: Staphylococcus aureus, ATCC6538P; solid medium; Penycilline resistant; read-out: Minimum inhibiting concentration
# Text: as §1
# [16] = test system: Staphylococcus aureus ATCC 6538P LRP 39; experiment: Bacteriostatic power in solid medium (MIC); type: cell-based; details: Staphylococcus aureus, ATCC6538P; solid medium; read-out: Minimum inhibiting concentration
# Text: as §1
# [17] = test system: Streptococcus faecalis LRP 7; experiment: Bacteriostatic power in solid medium (MIC); type: cell-based; details: Enterococcus faecalis, LRP7; solid medium; read-out: Minimum inhibiting concentration
# Text: as §1
# [18] = test system: Streptococcus faecalis subsp. zymogenes ATCC 12958 LRP 61; experiment: Bacteriostatic power in solid medium (MIC); type: cell-based; details: Enterococcus faecalis, ATCC12958; solid medium; read-out: Minimum inhibiting concentration
# Text: as §1
# [19] = test system: Streptococcus pneumoniae ATCC 6303 LRP 35; experiment: Bacteriostatic power in solid medium (MIC); type: cell-based; details: Streptococcus pneumoniae, ATCC6303; solid medium; read-out: Minimum inhibiting concentration
# Text: as §1
# [20] = test system: Streptococcus pneumoniae ATCC 6303 LRP 52; experiment: Bacteriostatic power in solid medium (MIC); type: cell-based; details: Streptococcus pneumoniae, ATCC6303; solid medium; read-out: Minimum inhibiting concentration
# Text: as §1
# [21] = test system: Streptococcus pneumoniae ATCC 6303 LRP 53; experiment: Bacteriostatic power in solid medium (MIC); type: cell-based; details: Streptococcus pneumoniae, ATCC6303; solid medium; read-out: Minimum inhibiting concentration
# Text: as §1
# [22] = test system: Streptococcus pyogenes ATCC 8668 LRP 197; experiment: Bacteriostatic power in solid medium (MIC); type: cell-based; details: Streptococcus pyogenes, ATCC8668; solid medium; read-out: Minimum inhibiting concentration
# Text: as §1
# [23] = test system: Streptococcus pyogenes ATCC 8668 LRP 34; experiment: Bacteriostatic power in solid medium (MIC); type: cell-based; details: Streptococcus pyogenes, ATCC8668; solid medium; read-out: Minimum inhibiting concentration
# Text: as §1
# [24] = test system: Clostridium perfrigens ATCC 3624 LRP 206; experiment: microbe, parasite or virus in culture; type: cell-based; details: ATCC3624, solid medium, anaerobic, read-out: Minimum inhibiting concentration
# Text: as §1
# Salmonella typhy LRP 8 = experiment: microbe, parasite or virus in culture; type: cell-based; details: LRP8, solid medium, read-out: Minimum inhibiting concentration
# Text: as §1
# [25] = test system: Corynebacterium diphteriae LRP 24; experiment: Bacteriostatic power in liquid medium (MIC); type: cell-based; details: Corynebacterium, LRP24; liquid medium; read-out: Minimum inhibiting concentration
# Text: as §1
# [26] = test system: Staphylococcus aureus ATCC 6538 P LRP 39; experiment: Bacteriostatic power in liquid medium (MIC); type: cell-based; details: Staphylococcus aureus, ATCC6538; liquid medium; read-out: Minimum inhibiting concentration
# Text: as §1
# [27] = test system: Streptococcus faecalis subs. zymogenes ATCC 12958 LRP 61; experiment: Bacteriostatic power in liquid medium (MIC); type: cell-based; details: Enterococcus faecalis, ATCC12958; liquid medium; read-out: Minimum inhibiting concentration
# Text: as §1
# [28] = test system: Streptococcus pneumoniae ATCC 6303 LRP 35; experiment: Bacteriostatic power in liquid medium (MIC); type: cell-based; details: Streptococcus pneumoniae, ATCC6303; liquid medium; read-out: Minimum inhibiting concentration
# Text: as §1
# [29] = test system: Streptococcus pyogenes ATCC 8668 LRP 34; experiment: Bacteriostatic power in liquid medium (MIC); type: cell-based; details: Streptococcus pyogenes, ATCC8668; liquid medium; read-out: Minimum inhibiting concentration
# Text: as §1
# [30] = test system: Corynebacterium diphteriae LRP 24; experiment: Minimum bactericidal concentration (MBC); type: cell-based
# Text: (§2) the bacterial power, expressed as the minimum bactericidal power (MBC) against some Gram positive aerobic stocks (table 5).
# [31] = test system: Staphylococcus aureus ATCC 6538 P LRP 39; experiment: Minimum bactericidal concentration (MBC); type: cell-based
# Text: as §2
# [32] = test system: Streptococcus faecalis subs. zymogenes LRP 61; experiment: Minimum bactericidal concentration (MBC); type: cell-based
# Text: as §2
# [33] = test system: Streptococcus pneumoniae ATCC 6303 LRP 35; experiment: Minimum bactericidal concentration (MBC); type: cell-based
# Text: as §2
# [34] = test system: Streptococcus pyogenes ATCC 8668 LRP 34; experiment: Minimum bactericidal concentration (MBC); type: cell-based
# Text: as §2
structure (smiles),measurement,setting,value
"CC[C@H]1OC(=O)[C@H](C)[C@@H](O[C@H]2C[C@@](C)(O)[C@@H](O)[C@H](C)O2)[C@H](C)[C@@H](O[C@@H]2O[C@H](C)C[C@H](N(C)C)[C@H]2O)[C@](C)(O)C[C@](C)(F)C(=O)[C@H](C)[C@@H](O)[C@]1(C)O [P-80205, (8S)-8-fluoroerythromycin C]",half-life,[1]; pH 2,99 min
same,half-life,[1]; pH 3,2490 min
same,MIC,[2],3.12 µg/mL
same,MIC,Bacillus subtilis LRP 25,0.097 µg/mL
same,MIC,[3],0.78 µg/mL
same,MIC,[4],0.012 µg/mL
same,MIC,Escherichia coli LRP 50,12.5 µg/mL
same,MIC,[5],12.5 µg/mL
same,MIC,[6],12.5 µg/mL
same,MIC,[7],25 µg/mL
same,MIC,[8],25 µg/mL
same,MIC,[9],0.012 µg/mL
same,MIC,[10],25 µg/mL
same,MIC,[11],0.195 µg/mL
same,MIC,[12],25 µg/mL
same,MIC,[13],25 µg/mL
same,MIC,Shigella sonnei LRP 5,25 µg/mL
same,MIC,[14],25 µg/mL
same,MIC,[15],0.097 µg/mL
same,MIC,[16],0.097 µg/mL
same,MIC,[17],0.097 µg/mL
same,MIC,[18],0.097 µg/mL
same,MIC,[19],0.024 µg/mL
same,MIC,[20],0.012 µg/mL
same,MIC,[21],0.024 µg/mL
same,MIC,[22],0.024 µg/mL
same,MIC,[23],0.024 µg/mL
same,MIC,[24],6.25 µg/mL
same,MIC,Salmonella typhy LRP 8,12.5 µg/mL
same,MIC,[25],0.049 µg/mL
same,MIC,[26],0.195 µg/mL
same,MIC,[27],0.39 µg/mL
same,MIC,[28],0.097 µg/mL
same,MIC,[29],0.049 µg/mL
same,MBC/MIC,[30],8
same,MBC,"[30]; Corynebacterium, LRP24, read-out: Minimum bactericidal concentration (MBC)",0.39 µg/mL
same,MBC/MIC,[31],16
same,MBC,"[31]; Staphylococcus aureus, ATCC6538, read-out: Minimum bactericidal concentration (MBC)",3.12 µg/mL
same,MBC/MIC,[32],> 8
same,MBC,"[32]; Enterococcus faecalis, read-out: Minimum bactericidal concentration (MBC)",> 3.12 µg/mL
same,MBC/MIC,[33],2
same,MBC,"[33]; Streptococcus pneumoniae, ATCC6303, read-out: Minimum bactericidal concentration (MBC)",0.195 µg/mL
same,MBC/MIC,[34],16
same,MBC,"[34]; Streptococcus pyogenes, ATCC8668, read-out: Minimum bactericidal concentration (MBC)",0.78 µg/mL
